Experimental findings from patent US10611740B2, “Aryl dihydro-2H-benzo[b][1,4]oxazine sulfonamide and related compounds for use as agonists of RORγ and the treatment of disease” (Lycera Corporation, priority 2015, dated 2020) are described below.

Some results are limits rather than exact numbers.

As a reminder, the EC50 is the concentration that produces a half-maximal response. A higher EC50 goes with lower potency in that assay.

The test concerns the target T1, RORγ-LBD (Homo sapiens, UniProt P51449).
T1 construct: made in house; host or cells: SF9 cells (baculovirus)
T1 sequence (P51449 269-508 limits assumed): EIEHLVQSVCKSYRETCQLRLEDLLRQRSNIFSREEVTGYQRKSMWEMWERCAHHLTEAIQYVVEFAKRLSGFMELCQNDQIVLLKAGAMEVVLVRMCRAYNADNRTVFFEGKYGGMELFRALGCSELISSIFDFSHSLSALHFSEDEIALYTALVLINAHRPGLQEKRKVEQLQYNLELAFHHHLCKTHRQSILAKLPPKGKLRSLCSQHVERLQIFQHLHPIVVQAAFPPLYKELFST
Put plainly: RORγ-Ligand Binding Domain (LBD) TR-FRET Assay.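 As to TR-FRET Assay Max Response: 665/615 nm ratio relative to signal without ursolic acid or compound set at 100.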 Type of test: biochemical. A digest of the protocol: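 This TR-FRET coactivator assay pairs baculovirus-expressed His-RORγ-LBD (~3 nM final) with biotin-SRC1 LXXLL peptide at 200 nM final in pH 7.0 Tris/KCl/EDTA/DTT/BSA buffer.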

In the case of `O=C(O)CC[C@H]1CN(S(=O)(=O)c2cccc(C(F)(F)F)c2)c2cc(-c3ccnc(Cl)n3)ccc2O1` [Compound 4AX, (S)-3-(6-(2-chloropyrimidin-4-yl)-4-((3-(trifluoromethyl)-phenyl)sulfonyl)-3,4-dihydro-2H-benzo[b][1,4]oxazin-2-yl)propanoic acid], the EC50 lay within 500 to 5000 nM and the “TR-FRET Assay Max Response” value is listed as “** (The symbol “**” indicates a value in the range of greater than 90 to 150)”.
Turning to `O=C(O)C1(C[C@@H]2CN(S(=O)(=O)c3cccc(C(F)(F)F)c3)c3cc(-c4cc(F)cc(F)c4)ccc3O2)CCC1` [Compound 32AP, (R)-1-((6-(3,5-difluorophenyl)-4-((3-(trifluoromethyl)phenyl)-sulfonyl)-3,4-dihydro-2H-benzo[b][1,4]oxazin-2-yl)methyl)cyclobutane-1-carboxylic acid], the EC50 is < 500 nM and the “TR-FRET Assay Max Response” value is given as “** (The symbol “**” indicates a value in the range of greater than 90 to 150)”.
As for `O=C(O)[C@H]1C[C@H]([C@H]2CN(S(=O)(=O)c3cccc(C(F)(F)F)c3)c3cc(-c4cc(F)cc(OC(F)F)c4)ccc3O2)C1` [Compound 60K, (1S,3r)-3-((S)-6-(3-(difluoro-methoxy)-5-fluorophenyl)-4-((3-(trifluoromethyl)phenyl)-sulfonyl)-3,4-dihydro-2H-benzo[b][1,4]oxazin-2-yl)cyclobutane-1-carboxylic acid], the EC50 is < 500 nM and the “TR-FRET Assay Max Response” value is reported as “** (The symbol “**” indicates a value in the range of greater than 90 to 150)”.
On the same counts, the results for `C[C@H](C[C@H]1CN(S(=O)(=O)c2cccc(C(F)(F)F)c2)c2cc(-c3cccc(C(F)(F)F)n3)ccc2O1)C(=O)O` [Compound 46U, (R)-2-methyl-3-((S)-4-((3-(trifluoromethyl)phenyl)sulfonyl)-6-(6-(trifluoromethyl)pyridin-2-yl)-3,4-dihydro-2H-benzo[b][1,4]-oxazin-2-yl)propanoic acid] are < 500 nM and “*** (The symbol “***” indicates a value in the range of greater than 150 to 200)”.
Take `O=C(O)CC[C@H]1CN(S(=O)(=O)c2cccc(C(F)(F)F)c2)c2cc(-c3cccc(C(F)(F)F)n3)c(Cl)cc2O1` [Compound 22F, (S)-3-(7-chloro-4-((3-(trifluoromethyl)phenyl)sulfonyl)-6-(6-(trifluoromethyl)pyridin-2-yl)-3,4-dihydro-2H-benzo[b][1,4]-oxazin-2-yl)propanoic acid]: the EC50 was > 10000 nM.
Regarding `O=C1CC[C@](C[C@H]2CN(S(=O)(=O)c3cccc(C(F)(F)F)c3)c3cc(-c4cc(F)cc(OC(F)F)c4)ccc3O2)(C(=O)O)N1` [Compound 77D, (S)-2-(((S)-6-(3-(difluoro-methoxy)-5-fluorophenyl)-4-((3-(trifluoromethyl)phenyl)sulfonyl)-3,4-dihydro-2H-benzo[b][1,4]-oxazin-2-yl)methyl)-5-oxopyrrolidine-2-carboxylic acid], the EC50 was < 500 nM and the “TR-FRET Assay Max Response” value was “** (The symbol “**” indicates a value in the range of greater than 90 to 150)”.
Take `N#CC1(C(=O)NC[C@H]2CN(S(=O)(=O)c3cccc(C(F)(F)F)c3)c3cc(-c4cccc(F)c4Cl)ccc3O2)CC1` [Compound 30BL, (S)-N-((6-(2-chloro-3-fluoro-phenyl)-4-((3-(trifluoromethyl)-phenyl)sulfonyl)-3,4-dihydro-2H-benzo[b][1,4]oxazin-2-yl)methyl)-1-cyanocyclo-propane-1-carboxamide]: the EC50 was < 500 nM and the “TR-FRET Assay Max Response” value was “*** (The symbol “***” indicates a value in the range of greater than 150 to 200)”.
For `O=C(O)[C@H]1C[C@H]([C@H]2CN(S(=O)(=O)c3cccc(C(F)(F)F)c3)c3cc(-c4cccc(C(F)(F)F)n4)ccc3O2)C1` [Compound 72, (1S,3r)-3-((S)-4-((3-(trifluoromethyl)phenyl)sulfonyl)-6-(6-(trifluoromethyl)pyridin-2-yl)-3,4-dihydro-2H-benzo[b][1,4]oxazin-2-yl)cyclobutane-1-carboxylic acid], the EC50 is < 500 nM and the “TR-FRET Assay Max Response” value is recorded as “** (The symbol “**” indicates a value in the range of greater than 90 to 150)”.
Take `C[C@@H](C[C@H]1CN(S(=O)(=O)c2cccc(C(F)(F)F)c2)c2cc(-c3cccc(C(F)(F)F)n3)ccc2O1)C(=O)O` [Compound 46T, (S)-2-methyl-3-((S)-4-((3-(trifluoromethyl)phenyl)sulfonyl)-6-(6-(trifluoromethyl)pyridin-2-yl)-3,4-dihydro-2H-benzo[b][1,4]-oxazin-2-yl)propanoic acid]: the concentration giving a half-maximal response (EC50) was < 500 nM and the “TR-FRET Assay Max Response” value is given as “*** (The symbol “***” indicates a value in the range of greater than 150 to 200)”.
Regarding `NS(=O)(=O)CCC(=O)NC[C@H]1CN(S(=O)(=O)c2cccc(C(F)(F)F)c2)c2cc(-c3cccc(F)c3Cl)ccc2O1` [Compound 30BK, (S)-N-((6-(2-chloro-3-fluoro-phenyl)-4-((3-(trifluoromethyl)-phenyl)sulfonyl)-3,4-dihydro-2H-benzo[b][1,4]oxazin-2-yl)methyl)-3-sulfamoylpropanamide], the concentration giving a half-maximal response (EC50) was < 500 nM and the “TR-FRET Assay Max Response” value was “*** (The symbol “***” indicates a value in the range of greater than 150 to 200)”.
Turning to `C[C@@H](C[C@H]1CN(S(=O)(=O)c2cccc(C(F)(F)F)c2)c2cc(-c3cc(F)cc(F)c3)ccc2O1)C(=O)O` [Compound 46S, (S)-3-((S)-6-(3,5-difluorophenyl)-4-((3-(trifluoromethyl)phenyl)-sulfonyl)-3,4-dihydro-2H-benzo[b][1,4]oxazin-2-yl)-2-methylpropanoic acid], the EC50 was < 500 nM and the “TR-FRET Assay Max Response” value was “*** (The symbol “***” indicates a value in the range of greater than 150 to 200)”.
For the molecule `C[C@@H](C[C@H]1CN(S(=O)(=O)c2cccc(C(F)(F)F)c2)c2cc(-c3cc(F)cc(F)c3Cl)cc(F)c2O1)C(=O)O` [Compound 46I, (S)-3-((S)-6-(2-chloro-3,5-difluorophenyl)-8-fluoro-4-((3-(trifluoromethyl)phenyl)sulfonyl)-3,4-dihydro-2H-benzo[b][1,4]-oxazin-2-yl)-2-methylpropanoic acid], the EC50 was < 500 nM and the “TR-FRET Assay Max Response” value is on record as “*** (The symbol “***” indicates a value in the range of greater than 150 to 200)”.
In the case of `O=C(O)C1(C[C@@H]2CN(S(=O)(=O)c3cccc(C(F)(F)F)c3)c3cc(-c4cc(F)ccc4F)ccc3O2)CCC1` [Compound 32AQ, (R)-1-((6-(2,5-difluorophenyl)-4-((3-(trifluoromethyl)phenyl)-sulfonyl)-3,4-dihydro-2H-benzo[b][1,4]oxazin-2-yl)methyl)cyclobutane-1-carboxylic acid], the concentration giving a half-maximal response (EC50) is 500 to 5000 nM and the “TR-FRET Assay Max Response” value was “** (The symbol “**” indicates a value in the range of greater than 90 to 150)”.
On to `CC(=O)NC1(C[C@H]2CN(S(=O)(=O)c3cccc(C(F)(F)F)c3)c3cc(-c4cc(F)cc(OC(F)F)c4)ccc3O2)CCOCC1` [Compound 78I, (S)-N-(4-((6-(3-(difluoro-methoxy)-5-fluorophenyl)-4-((3-(trifluoromethyl)phenyl)sulfonyl)-3,4-dihydro-2H-benzo[b][1,4]-oxazin-2-yl)methyl)tetrahydro-2H-pyran-4-yl)acetamide], for which the EC50 was < 500 nM and the “TR-FRET Assay Max Response” value is “*** (The symbol “***” indicates a value in the range of greater than 150 to 200)”.
Turning to `O=C(NC[C@H]1CN(S(=O)(=O)c2cccc(C(F)(F)F)c2)c2cc(-c3cccc(F)c3Cl)ccc2O1)C1(F)CC1` [Compound 30BM, (S)-N-((6-(2-chloro-3-fluoro-phenyl)-4-((3-(trifluoromethyl)-phenyl)sulfonyl)-3,4-dihydro-2H-benzo[b][1,4]oxazin-2-yl)methyl)-1-fluorocyclo-propane-1-carboxamide], the concentration for a half-maximal effect (EC50) is < 500 nM and the “TR-FRET Assay Max Response” value is reported as “*** (The symbol “***” indicates a value in the range of greater than 150 to 200)”.
For the molecule `CC(=O)NC1(C[C@H]2CN(S(=O)(=O)c3cccc(C(F)(F)F)c3)c3cc(-c4cc(F)ccc4F)ccc3O2)CCOCC1` [Compound 78J, (S)-N-(4-((6-(2,5-difluorophenyl)-4-((3-(trifluoromethyl)phenyl)-sulfonyl)-3,4-dihydro-2H-benzo[b][1,4]oxazin-2-yl)methyl)tetrahydro-2H-pyran-4 yl)acetamide], the 50% effective concentration (EC50) was < 500 nM and the “TR-FRET Assay Max Response” value is on record as “*** (The symbol “***” indicates a value in the range of greater than 150 to 200)”.
Turning to `O=C(O)CC[C@H]1CN(S(=O)(=O)c2cccc(C(F)(F)F)c2)c2cc(-c3ccc(F)c(F)c3)ccc2O1` [Compound 2F, (S)-3-(6-(3,4-difluorophenyl)-4-((3-(trifluoromethyl)phenyl)-sulfonyl)-3,4-dihydro-2H-benzo[b][1,4]oxazin-2-yl)propanoic acid], the EC50 is < 500 nM and the “TR-FRET Assay Max Response” value is “** (The symbol “**” indicates a value in the range of greater than 90 to 150)”.
In the same order, the values of `C[C@H](C[C@H]1CN(S(=O)(=O)c2cccc(C(F)(F)F)c2)c2cc(-c3cccc(C(F)(F)F)c3)ccc2O1)C(=O)O` [Compound 46K, (R)-2-methyl-3-((S)-6-(3-(trifluoromethyl)phenyl)-4-((3-(trifluoromethyl)phenyl)sulfonyl)-3,4-dihydro-2H-benzo[b][1,4]-oxazin-2-yl)propanoic acid] are < 500 nM and “*** (The symbol “***” indicates a value in the range of greater than 150 to 200)”.
